Holding throughout (assay): NCI-60 cell line screen, 48 h
For assay [1], the system named is HOP-92 NSCLC.
In assay [2] the test system is A549 NSCLC.
The subject of assay [3] is ACHN renal.
Assay [4] relates to SK-MEL-28 melanoma.
Assay [5] has as its system NCI-H23 lung.
Assay [6] relates to SK-MEL-5 melanoma.
The test system of assay [7] is HL-60(TB) leukemia.
The test system of assay [8] is UACC-62 melanoma.
In assay [9] the test system is UO-31 renal.
Assay [10] concerns IGROV1 ovarian.

In PubChem BioAssay (NCI) one finds TGI and GI50 data, which are given here for nine compounds.

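Dose response: 5 concentrations. Exposure: 48 h. Format: 96-well plates. Endpoint: linear interpolation; highest concentration if not reached. Abbreviation: GI50, concentration required for 50% inhibition of growth. At the TGI there is no net growth.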

Consider `COc1cc2c(cc1OC)c1c(OC)c(OC)cc3c1c1c2sc(=S)n1CC3`, for which the TGI in [1], in [2], in assay [3], in [4], in assay [5] and in assay [6] was over 100 µM throughout. Further, the TGI in assay [7] was 81.8 µM; in assay [8], 59.1 µM; in assay [9], over 100 µM; in assay [10], over 100 µM.

As to `O=C(Cn1c(C(=O)c2ccccc2)nc2ccccc21)c1ccc(F)cc1`, the GI50 in [1] is 60.2 µM; in assay [2], 22.9 µM; in assay [3] it was over 59.7 µM; in assay [4], 7.07 µM; in assay [5] it was 19.4 µM; in [6] it was 4.13 µM. In addition, the GI50 in [7] was 1.65 µM; in assay [8], 11.7 µM; in assay [9] it was over 43.8 µM; in [10], 10.9 µM. Further, the TGI in [1] is over 100 µM; in assay [2], over 100 µM; in assay [3], over 100 µM; in [4] it was over 100 µM; in assay [5], over 100 µM; in assay [6], over 82.2 µM. Moreover, the TGI was 5.9 µM in assay [7], over 100 µM in assay [8], over 100 µM in assay [9] and over 100 µM in assay [10].

Regarding `CCOC(=O)C1SC(=Nc2ccc(Cl)cc2C)N=C1C` (stereo not given), the TGI in [1] was determined as 30 µM; in assay [2] it was 86.2 µM; in assay [3], 57.2 µM; in assay [4], 73.5 µM; in assay [5] it was 34.8 µM; in assay [6] it was 29.9 µM. For the same compound, the TGI in [7] stood at 27.1 µM; in assay [8] it was 27.9 µM; in [9], 39.9 µM; in assay [10], 88 µM.

For the compound `CCOc1c(C#N)c2c(N)ncnc2n1C1OC(CO)C(O)C1O` (stereo not given), the GI50 in assay [1] is 2.82 µM; in assay [2] it was 2.27 µM; in assay [3], 2.95 µM; in assay [4], 2.52 µM; in assay [5] it was 3.69 µM; in assay [6], 3.79 µM. The GI50 is 1.94 µM in assay [7], 2.76 µM in assay [8], 2.86 µM in assay [9] and 0.761 µM in assay [10]. Besides, the TGI in assay [1] is over 100 µM; in [2], over 100 µM; in assay [3], over 100 µM; in assay [4] it was 11.8 µM; in assay [5], 34.4 µM; in [6], 16.6 µM. The TGI in assay [7] is 6.94 µM; in assay [8] it was 10 µM; in assay [9], over 40.3 µM; in assay [10] it was 2.54 µM.

Consider `CC(=O)O[C@H]1C(=O)[C@@]2(C)[C@H]([C@H](OC(=O)c3ccccc3)[C@@]3(O)C[C@H](O)C(C)=C1C3(C)C)[C@]1(OC(C)=O)CO[C@@H]1C[C@@H]2O`, for which the TGI in [1], in [2], in assay [3], in assay [4], in assay [5] and in assay [6] was over 100 µM in each case. The TGI in [7], in [8], in assay [9] and in assay [10] was over 100 µM throughout.

`CN1CCN(Cc2ccc(NC(=O)c3cncc(C#Cc4cnn5ccccc45)c3)cc2C(F)(F)F)CC1`: the GI50 in assay [1] was 0.633 µM; in assay [2] it was 0.723 µM; in [3] it was 0.873 µM; in assay [4] it was 1.22 µM; in assay [5], 0.655 µM; in assay [6] it was 0.902 µM. For the same compound, the GI50 was 0.25 µM in [7], 0.996 µM in assay [8], 1.17 µM in assay [9] and 0.858 µM in assay [10]. Besides, the TGI in [1] amounted to 2.98 µM; in assay [2] it was 3.56 µM; in assay [3] it was 3.72 µM; in assay [4] it was 3.53 µM; in assay [5], 1.97 µM; in assay [6] it was 1.72 µM. In addition, the TGI was 1.15 µM in assay [7], 2.38 µM in assay [8], 3.39 µM in assay [9] and 3.61 µM in assay [10].

Consider `CC(=N)N(C)O`, for which the TGI in assay [1], in assay [2], in assay [3], in assay [4], in assay [5] and in assay [6] was over 100 µM each time. Moreover, the TGI in [7], in assay [8], in assay [9] and in assay [10] was over 100 µM each time.

With `CCOC(=O)c1cc(-c2ccc(OC)c(OC)c2)[nH]c1N/N=C/c1c(Cl)cccc1Cl`, the GI50 in [1] is 4.58 µM; in assay [2], 3.06 µM; in assay [3], 3.23 µM; in assay [4], 1.12 µM; in assay [5], 2.97 µM; in assay [6], 0.956 µM. Further, the GI50 is 1.86 µM in [7], 0.704 µM in assay [8], 4.32 µM in assay [9] and 2.45 µM in assay [10]. Besides, the TGI in assay [1] was 26.8 µM; in [2], over 100 µM; in [3], 16.2 µM; in [4], over 100 µM; in assay [5], 14 µM; in [6], 8.33 µM. The TGI in assay [7] was determined as 6.15 µM; in assay [8], 6.64 µM; in assay [9], 37.6 µM; in assay [10] it was 30.4 µM.

On to `CCC[CH2][Sn]([CH2]CCC)([O]C(=O)c1cc(F)cc(F)c1)[O][Sn]([CH2]CCC)([CH2]CCC)[O]C(=O)c1cc(F)cc(F)c1`, for which the GI50 in [1] was 1.25 µM; in assay [2] it was 9.78 µM; in [3], 1.51 µM; in assay [4], 1.14 µM; in assay [5], 0.606 µM; in assay [6] it was 1.46 µM. Besides, the GI50 is 0.374 µM in assay [7], 1.4 µM in assay [8], 1.66 µM in assay [9] and 1.64 µM in assay [10]. The TGI in assay [1] came to 2.52 µM; in [2], 21.8 µM; in [3], 2.83 µM; in assay [4] it was 2.38 µM; in assay [5], 1.88 µM; in assay [6] it was 2.77 µM. The TGI in assay [7] was 2.23 µM; in assay [8] it was 2.7 µM; in [9], 3.02 µM; in assay [10], 3.31 µM.
